According to BigSolDB 2.1:

Conditions: 298 K

Row | solubility (mole fraction) (in n-octanol) | solubility (mole fraction) (in water) | solubility (mole fraction) (in n-hexane) | SMILES
1 | 0.00129 | 5.47e-06 |  | N#Cc1ccc(NS(=O)(=O)c2ccc(N)cc2)cc1
2 | 0.000233 | 1.32e-06 | 2.24e-06 | COc1ccc(NS(=O)(=O)c2ccc(N)cc2)cc1
3 | 0.00163 | 5.44e-07 |  | Nc1ccc(S(=O)(=O)Nc2ccc(I)cc2)cc1
4 | 0.00104 | 5.09e-07 | 2.77e-06 | CCc1ccc(NS(=O)(=O)c2ccc(N)cc2)cc1
5 | 0.000552 | 1.53e-07 |  | Cc1ccc(NS(=O)(=O)c2ccc(N)cc2)cc1Cl
6 | 0.00145 | 1.19e-06 |  | Nc1ccc(S(=O)(=O)Nc2ccc(Cl)cc2)cc1
7 | 0.003 | 3.65e-06 |  | Nc1ccc(S(=O)(=O)Nc2ccc([N+](=O)[O-])cc2)cc1
8 | 0.00125 | 3.41e-07 | 3.95e-06 | CCOc1ccc(NS(=O)(=O)c2ccc([N+](=O)[O-])cc2)cc1
9 | 0.00188 | 1.61e-06 | 2.94e-06 | Cc1ccc(Cl)cc1NS(=O)(=O)c1ccc(N)cc1
10 | 0.000422 | 2.05e-07 |  | Nc1ccc(S(=O)(=O)Nc2ccc(Cl)c(Cl)c2)cc1
11 | 0.000681 | 3.32e-07 | 6.05e-06 | Nc1ccc(S(=O)(=O)Nc2cccc(Cl)c2Cl)cc1
12 | 0.00489 | 7.72e-07 |  | Cc1cc(Cl)ccc1NS(=O)(=O)c1ccc(N)cc1
13 | 0.00158 | 7.65e-07 | 2.43e-06 | Cc1ccc(NS(=O)(=O)c2ccc(N)cc2)c(Cl)c1
14 | 0.00356 | 6.71e-07 | 4.59e-06 | Cc1cc(N)ccc1S(=O)(=O)Nc1ccc(Cl)cc1
15 | 0.000529 | 7.25e-07 | 4.69e-06 | Nc1ccc(S(=O)(=O)Nc2cc(Cl)ccc2Cl)cc1

Continued, compound first:

Row | SMILES | solubility (mole fraction) (in n-octanol) | solubility (mole fraction) (in water) | solubility (mole fraction) (in n-hexane)
16 | CCN(CC)S(=O)(=O)c1ccc(N)cc1 | 0.0108 | 4.27e-05 | 2.41e-05
17 | Nc1ccc(S(=O)(=O)N(c2ccccc2)c2ccccc2)cc1 | 0.000551 | 4.84e-07 | 5.4e-06
18 | Cc1ccc(NS(=O)(=O)c2ccc([N+](=O)[O-])cc2)nc1 | 3.38e-05 | 1.13e-06 | 
19 | O=[N+]([O-])c1ccc(NS(=O)(=O)c2ccccc2)cc1 | 0.0116 | 2.11e-06 | 3.16e-06
20 | O=S(=O)(Nc1ncccc1Cl)c1ccccc1 | 0.00282 | 1.17e-05 | 6.58e-05
21 | Nc1ccc(S(=O)(=O)Nc2ccc(Cl)cc2)c(Cl)c1 | 0.00248 | 4.72e-07 | 
22 | CNS(=O)(=O)c1ccc(N)cc1 | 0.00486 | 0.00103 | 
23 | O=S(=O)(Nc1ccc(Cl)cc1)c1ccccc1 | 0.0421 | 1.68e-06 | 1.37e-06
24 | O=S(=O)(Nc1ccccc1Cl)c1ccccc1 | 0.0036 | 8.69e-07 | 7.73e-06
25 | CN(C)S(=O)(=O)c1ccc(N)cc1 | 0.000873 | 3.21e-05 | 2.9e-06
26 | Nc1ccc(S(=O)(=O)Nc2ccccc2Cl)c(Cl)c1 | 7.4e-05 | 1.19e-07 | 
27 | Cc1cc(N)ccc1S(=O)(=O)Nc1ccccc1[N+](=O)[O-] | 0.000198 | 5.18e-07 | 3.22e-06
28 | Nc1ccc(S(=O)(=O)Nc2cc(Cl)c(Cl)cc2Cl)cc1 | 0.00109 | 2.51e-07 | 6.32e-06
29 | CCOC(=O)c1ccc(NS(=O)(=O)c2ccccc2)nc1 | 0.0006 | 1.24e-06 | 
30 | O=S(=O)(Nc1cccnc1Cl)c1ccccc1 | 0.00151 |  | 2.63e-05
31 | O=[N+]([O-])c1ccc(S(=O)(=O)Nc2nccs2)cc1 |  | 4.23e-06 | 
32 | O=S(=O)(Nc1ccccc1)c1ccccc1 | 0.0335 | 8.49e-06 | 0.000101
33 | Nc1ccc(S(=O)(=O)Nc2ccc([N+](=O)[O-])cc2Br)cc1 | 0.000308 | 3.01e-07 | 
34 | O=[N+]([O-])c1ccccc1NS(=O)(=O)c1ccccc1 | 0.0106 | 1.78e-06 | 
35 | Cc1cc(N)ccc1S(=O)(=O)Nc1ccccc1Cl | 0.000115 | 1.57e-07 | 1.08e-06
